Experimental data reported in patent publication US12421254B2, “KRAS modulators and uses thereof” (Quanta Therapeutics, Inc., priority 2023, dated 2025).

Experiments:
[1] = biological target: GST-tagged KRAS-G12D (2-169) (Homo sapiens, UniProt P01116, G12D); experiment: Nucleotide exchange assay (NEA), SOS-mediated, HTRF, KRAS G12D; assay type: biochemical; conditions: Table 4; IC50 extracted at 30 min; 20 nM SOScat; read-out: NEA G12D IC50
Procedure, shortened: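 SOS1cat-driven loading of fluorescent GTP-DY-647P1 (150 nM) onto GST-KRAS-G12D (2-169, 0.25 nM) read by time-resolved FRET; SOScat 20 nM, compound preincubated with KRAS 1 h at RT. Signal blanked to no-SOS reactions, normalized to DMSO; IC50 fitted from the 30-min read.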

[2] = biological target: GST-tagged KRAS-G12V (2-169) (Homo sapiens, UniProt P01116, G12V); experiment: Nucleotide exchange assay (NEA), SOS-mediated, HTRF, KRAS G12V; assay type: biochemical; conditions: Table 4; IC50 extracted at 90 min; 80 nM SOS
Procedure, shortened: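 Exchange onto fluorescent GTP-DY-647P1 (150 nM final) catalysed by 80 nM SOS1cat was followed by Tb-anti-GST HTRF at RT for up to 90 min, after 1 h compound pre-incubation with 0.25 nM GST-tagged KRAS-G12V (2-169), pH 7.3. DMSO = 0%, no-SOS blank = 100%; 4-parameter IC50 taken at 90 min.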

GST-tagged KRAS-G12V (2-169), sequence (P01116 2-169 isoform P01116-2 G12V): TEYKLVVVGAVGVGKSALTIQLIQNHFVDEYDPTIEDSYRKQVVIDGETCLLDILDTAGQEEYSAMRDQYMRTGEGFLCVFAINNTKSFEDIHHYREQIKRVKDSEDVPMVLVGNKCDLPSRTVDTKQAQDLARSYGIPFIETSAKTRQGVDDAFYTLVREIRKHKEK
GST-tagged KRAS-G12D (2-169), sequence (P01116 2-169 isoform P01116-2 G12D): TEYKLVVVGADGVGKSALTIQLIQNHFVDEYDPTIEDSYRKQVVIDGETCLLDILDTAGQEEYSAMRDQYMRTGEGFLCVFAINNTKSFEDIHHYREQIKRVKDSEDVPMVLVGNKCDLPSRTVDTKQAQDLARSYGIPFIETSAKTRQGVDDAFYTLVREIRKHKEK

Row | Structure (SMILES) | IC50 [1] [nM] | IC50 [2] [nM]
1 | CC(c1ccc(P(C)(C)=O)cc1N)N(C)c1nc(OC[C@@]23CCCN2C[C@H](F)C3)nc(N2CC3(C2)SCc2sc(N)c(C#N)c23)n1 (stereo partly drawn) [Compound 231, 2′-amino-1-(4-((1-(2-amino-4-(dimethylphosphoryl)phenyl)ethyl)(methyl)amino)-6-(((2R,7aS)-2-fluorotetrahydro-1H-pyrrolizin-7a(5H)-yl)methoxy)-1,3,5-triazin-2-yl)-6′H-spiro[azetidine-3,4′-thieno[3,4-b]thiophene]-3′-carbonitrile] | ≥ 20000 | ≥ 20000
2 | N#Cc1c(N)sc2c1C1(CN(c3nc(OC[C@@]45CCCN4C[C@H](F)C5)nc(Oc4cc[nH]n4)n3)C1)SC2 [Compound 165, 2-amino-1′-[4-[[(2R,8S)-2-fluoro-1,2,3,5,6,7-hexahydropyrrolizin-8-yl]methoxy]-6-(1H-pyrazol-3-yloxy)-1,3,5-triazin-2-yl]spiro[6H-thieno[3,4-b]thiophene-4,3′-azetidine]-3-carbonitrile] | 1000 to 20000 | 100 to 1000
3 | N#Cc1c(N)sc2c1C1(CN(c3nc(OC[C@@]45CCCN4C[C@H](F)C5)nc(N4C5CCC4CC(=O)NC5)n3)C1)SC2 (stereo partly drawn) [Compound 271, 2-amino-1′-[4-[[(2R,8S)-2-fluoro-1,2,3,5,6,7-hexahydropyrrolizin-8-yl]methoxy]-6-(4-oxo-3,9-diazabicyclo[4.2.1]nonan-9-yl)-1,3,5-triazin-2-yl]spiro[6H-thieno[3,4-b]thiophene-4,3′-azetidine]-3-carbonitrile] | 1000 to 20000 | 100 to 1000
4 | C[C@H](c1cccnc1N)N(CC(N)=O)c1nc(OC[C@@]23CCCN2C[C@H](F)C3)nc(N2CC3(C2)SCc2sc(N)c(C#N)c23)n1 [Compound 199, 2-[[4-(2-amino-3-cyano-spiro[6H-thieno[3,4-b]thiophene-4,3′-azetidine]-1′-yl)-6-[[(2R,8S)-2-fluoro-1,2,3,5,6,7-hexahydropyrrolizin-8-yl]methoxy]-1,3,5-triazin-2-yl]-[(1R)-1-(2-amino-3-pyridyl)ethyl]amino]acetamide] | < 10 | < 10
5 | C[C@H](c1cccnc1N)N(C)c1nc(OC[C@@]23CCCN2C[C@H](F)C3)nc(N2CCC3(CCc4sc(N)c(C#N)c43)C2)n1 (stereo partly drawn) [Compound 195, 2-amino-1′-[4-[methyl-[(1R)-1-(2-amino-3-pyridyl)ethyl]amino]-6-[[(2R,8S)-2-fluoro-1,2,3,5,6,7-hexahydropyrrolizin-8-yl]methoxy]-1,3,5-triazin-2-yl]spiro[5,6-dihydrocyclopenta[b]thiophene-4,3′-pyrrolidine]-3-carbonitrile] | 10 to 100 | < 10
6 | CCN(c1nc(OC[C@@]23CCCN2C[C@H](F)C3)nc(N2CC3(C2)c2c(sc(N)c2C#N)CN3CC#N)n1)[C@H](C)c1cccnc1N [Compound 228, 2-amino-1′-[4-[[(1R)-1-(2-amino-3-pyridyl)ethyl]-ethyl-amino]-6-[[(2R,8S)-2-fluoro-1,2,3,5,6,7-hexahydropyrrolizin-8-yl]methoxy]-1,3,5-triazin-2-yl]-5-(cyanomethyl)spiro[6H-thieno[2,3-c]pyrrole-4,3′-azetidine]-3-carbonitrile] | 1000 to 20000 | 100 to 1000
7 | C[C@H](c1cccnc1N)N(CC(F)F)c1nc(OCC2(CN(C)C)CC2(F)F)nc(N2CC3(C2)SCc2sc(N)c(C#N)c23)n1 (stereo partly drawn) [Compound 220, 2-amino-1′-[4-[[(1R)-1-(2-amino-3-pyridyl)ethyl]-(2,2-difluoroethyl)amino]-6-[[1-[(dimethylamino)methyl]-2,2-difluoro-cyclopropyl]methoxy]-1,3,5-triazin-2-yl]spiro[6H-thieno[3,4-b]thiophene-4,3′-azetidine]-3-carbonitrile] | < 10 | < 10
8 | N#Cc1c(N)sc2c1C1(CN(c3nc(OC[C@@]45CCCN4C[C@H](F)C5)nc(N(CC4(O)CC4)C4(C#N)CC4)n3)C1)SC2 [Compound 263, 2-amino-1′-[4-[(1-cyanocyclopropyl)-[(1-hydroxycyclopropyl)methyl]amino]-6-[[(2R,8S)-2-fluoro-1,2,3,5,6,7-hexahydropyrrolizin-8-yl]methoxy]-1,3,5-triazin-2-yl]spiro[6H-thieno[3,4-b]thiophene-4,3′-azetidine]-3-carbonitrile] | 10 to 100 | 10 to 100
9 | C[C@]1(O)C[C@H](O)CN(c2nc(OC[C@@]34CCCN3C[C@H](F)C4)nc(N3CC4(CCc5sc(N)c(C#N)c54)C3)n2)C1 [Compound 75, 2-amino-1′-[4-[(3S,5S)-3,5-dihydroxy-3-methyl-1-piperidyl]-6-[[(2R,8S)-2-fluoro-1,2,3,5,6,7-hexahydropyrrolizin-8-yl]methoxy]-1,3,5-triazin-2-yl]spiro[5,6-dihydrocyclopenta[b]thiophene-4,3′-azetidine]-3-carbonitrile] | 1000 to 20000 | 100 to 1000
10 | CC(c1cccnc1N)N(C)c1nc(OC[C@@]23CCCN2C[C@H](F)C3)nc(N2CC3(C2)SCc2sc(N)c(C#N)c23)n1 (stereo partly drawn) [Compound 115, 2-amino-1′-[4-[1-(2-amino-3-pyridyl)ethyl-methyl-amino]-6-[[(2R,8S)-2-fluoro-1,2,3,5,6,7-hexahydropyrrolizin-8-yl]methoxy]-1,3,5-triazin-2-yl]spiro[6H-thieno[3,4-b]thiophene-4,3′-azetidine]-3-carbonitrile] | < 10 | < 10
11 | N#Cc1c(N)sc2c1C1(CC2)CN(c2nc(OC[C@@]34CCCN3C[C@H](F)C4)nc(O[C@@H]3COC[C@@H]3O)n2)C1 (racemic) [Compound 28, 2-amino-1′-[4-[[(2R,8S)-2-fluoro-1,2,3,5,6,7-hexahydropyrrolizin-8-yl]methoxy]-6-[rac-(3R,4S)-4-hydroxytetrahydrofuran-3-yl]oxy-1,3,5-triazin-2-yl]spiro[5,6-dihydrocyclopenta[b]thiophene-4,3′-azetidine]-3-carbonitrile] | 1000 to 20000 | 100 to 1000
12 | CCN(c1nc(OC[C@@]23CCCN2C[C@H](F)C3)nc(N2CC3(C2)c2c(sc(N)c2C#N)CN3CC(F)F)n1)[C@H](C)c1cccnc1N [Compound 227, 2-amino-1′-[4-[[(1R)-1-(2-amino-3-pyridyl)ethyl]-ethyl-amino]-6-[[(2R,8S)-2-fluoro-1,2,3,5,6,7-hexahydropyrrolizin-8-yl]methoxy]-1,3,5-triazin-2-yl]-5-(2,2-difluoroethyl)spiro[6H-thieno[2,3-c]pyrrole-4,3′-azetidine]-3-carbonitrile] | 100 to 1000 | 10 to 100
13 | C[C@H](c1ccc(P(C)(C)=O)nc1N)N(C)c1nc(OC[C@@]23CCCN2C[C@H](F)C3)nc(N2CC3(C2)SCc2sc(N)c(C#N)c23)n1 [Compound 232, 2-amino-1′-[4-[1-(2-amino-6-dimethylphosphoryl-3-pyridyl)ethyl-methyl-amino]-6-[[(2R,8S)-2-fluoro-1,2,3,5,6,7-hexahydropyrrolizin-8-yl]methoxy]-1,3,5-triazin-2-yl]spiro[6H-thieno[3,4-b]thiophene-4,3′-azetidine]-3-carbonitrile] | 1000 to 20000 | 100 to 1000
14 | N#Cc1c(N)sc2c1C1(CC2)CN(c2nc(OC[C@@]34CCCN3C[C@H](F)C4)nc(N(CCO)Cc3c[nH]nc3Cl)n2)C1 [Compound 151, 2-amino-1′-[4-[(3-chloro-1H-pyrazol-4-yl)methyl-(2-hydroxyethyl)amino]-6-[[(2R,8S)-2-fluoro-1,2,3,5,6,7-hexahydropyrrolizin-8-yl]methoxy]-1,3,5-triazin-2-yl]spiro[5,6-dihydrocyclopenta[b]thiophene-4,3′-azetidine]-3-carbonitrile] | 1000 to 20000 | 100 to 1000
15 | CCN(c1nc(OC[C@]23CC[C@H](CN(C)C2)N3)nc(N2CC3(C2)SCc2sc(N)c(C#N)c23)n1)[C@H](C)c1cccnc1N [Compound 214, 2′-amino-1-(4-(((R)-1-(2-aminopyridin-3-yl)ethyl)(ethyl)amino)-6-(((1S,5R)-3-methyl-3,8-diazabicyclo[3.2.1]octan-1-yl)methoxy)-1,3,5-triazin-2-yl)-6′H-spiro[azetidine-3,4′-thieno[3,4-b]thiophene]-3′-carbonitrile] | < 10 | < 10
16 | N#Cc1c(N)sc2c1C1(CN(c3nc(OC[C@@]45CCCN4C[C@H](F)C5)nc(N4CCC5(CC4)COC5=O)n3)C1)SC2 [Compound 283, 2-amino-1′-[4-[[(2R,8S)-2-fluoro-1,2,3,5,6,7-hexahydropyrrolizin-8-yl]methoxy]-6-(3-oxo-2-oxa-7-azaspiro[3.5]nonan-7-yl)-1,3,5-triazin-2-yl]spiro[6H-thieno[3,4-b]thiophene-4,3′-azetidine]-3-carbonitrile] | 100 to 1000 | 100 to 1000
17 | C[C@H](c1ccc(P(C)(C)=O)cc1)N(C)c1nc(OC[C@@]23CCCN2C[C@H](F)C3)nc(N2CC3(C2)SCc2sc(N)c(C#N)c23)n1 [Compound 229, 2′-amino-1-(4-(((R)-1-(4-(dimethylphosphoryl)phenyl)ethyl)(methyl)amino)-6-(((2R,7aS)-2-fluorotetrahydro-1H-pyrrolizin-7a(5H)-yl)methoxy)-1,3,5-triazin-2-yl)-6′H-spiro[azetidine-3,4′-thieno[3,4-b]thiophene]-3′-carbonitrile] | 1000 to 20000 | 1000 to 20000
